Results taken from patent US11555072B2, “A33 antibody compositions and methods of using the same in radioimmunotherapy” (MEMORIAL SLOAN KETTERING CANCER CENTER, priority 2017, dated 2023).

Columns and labels:
[1] = tested on: T cells; test: In vivo T cell proliferation assay; settings: CFSE-labeled PBMCs + Colo205 s.c. in DKO mice, antibody i.v. next day, tumors analyzed 4 days later
Experimental: To determine if T cells can be activated in vivo, an in vivo proliferation assay was conducted by mixing CFSE-labeled PBMCs with Colo205 cells and the mixture was implanted subcutaneously onto DKO mice. huA33-BsAb was injected intravenously the next day and the tumors were isolated after another 4 days and analyzed by FACS.

[2] = tested on: SW1222 tumor; test: i.p. SW1222 tumor model with i.v. T cells; type: in vivo, mice; settings: 6 doses i.v. over 3 weeks, T cells weekly over 2 weeks
Experimental: (§1) For intraperitoneal (i.p.) tumor models, luciferase expressing LS174T-luc or SW1222-luc cells were resuspended in RPMI medium and injected intraperitoneally into DKO mice. Human effector cells were supplied as activated T cells and injected intravenously. Mice were treated with 2-3 weekly cycles of antibody-T cell-antibody regimen, with each component separated by 3-4 days. Growth of tumors was followed weekly by measuring luminescence signals on an IVIS Spectrum in vivo imaging system ([…]® Inc., Waltham, Mass.) after injection of 3.3 mg/mouse of luciferin. Luminescence was analyzed and quantified using Living Image Software ([…]®-Inc., Waltham, Mass.).
For the SW1222 cell line, tumors were planted intraperitoneally and treated with 6 doses of i.v. antibody over 3 weeks, and i.v. T cell weekly over 2 weeks. […] It is anticipated that additional treatment cycles will completely eradicate the growth of tumors, as in subcutaneous models.

[3] = tested on: Colo205 cells; test: TDCC assay with sorted fresh T cell subsets; type: cell-based, human
Experimental: T-cell dependent cytotoxicity (TDCC) assays. Cytotoxicity assays were performed using both ^51Cr-release assay and Pierce LDH-release assay (Thermo Fisher Scientific, Cambridge, Mass.). For both assays, T cells activated by exposure to anti-CD3/anti-CD28 Dynabeads for 14 days were subsequently used as effector cells, excepted for sorted cells from PBMCs, which were used for TDCC assay without prior stimulation. ^51Cr assay was performed as previously described in Cheng M et al., International Journal of Cancer 136:476-486 (2015). LDH assay was conducted according to the manufacturer's instructions with the following modifications. Briefly, for each assay well of a 96-well round-bottom plate, 1.5×10^4 target cells were incubated with variable number of effector cells, depending on the intended E:T ratios. […] Each condition was done in triplicates. Supernatant was then transferred to a flat bottom plate with reaction substrate and incubated for 30 min before reading at 490 nm, with 680 nm as a reference wavelength. EC50 values were calculated by fitting the curves to a 4-parameter nonlinear regression model using GraphPad Prism.
To determine which subsets of T cells were mobilized by huA33-BsAb, CD45RA(+)CD62L(+) and CD45RA(−)CD45RO(+)CD62L(−) memory subsets from both CD4(+) and CD8(+) T cells were sorted. […]

[4] = tested on: T cells; test: T cell activation and proliferation assay (CFSE-labeled PBMCs plus tumor cells); type: cell-based, human
Experimental: T cell proliferation assay. Fresh PBMCs from healthy donors were labeled with […] CFSE (Life Technologies Corp., Carlsbad, Calif.) for 5 min at room temperature, followed by neutralization using PBS containing 5% FBS. Target cells were then incubated with labeled PBMCs under different conditions at 37° C. before analyzing the expression of surface activation markers and T cell proliferation at 24 hours and 96 hours.
HuA33-BsAb activated and induced cell cycle entry of fresh T cells.

[5] = tested on: LS174T tumor; test: i.p. LS174T-luc tumor model with i.v. activated T cells; type: in vivo, mice
Experimental: as §1
To simulate malignant ascites, a common occurrence in colon cancers, luciferase-expressing LS174T cells were planted intraperitoneally into DKO mice. When tumor growth was confirmed by luminescence, mice were randomized into different treatment groups, treated with no antibody group (tumor only), tumor+T cell only group (tumor+ATC), or i.v. huA33-BsAb (7 doses over 3 weeks), plus weekly T cell injections over 3 weeks. Treatment was started on day 5 after tumor implantation. All T cells were injected through retro-orbital route.

[6] = tested on: LS174T tumors; test: s.c. LS174T xenograft with s.c. PBMCs; type: in vivo, mice; settings: 6 doses over 3 weeks
Experimental: In vivo tumor therapy. For subcutaneous (s.c.) tumor models, LS174T, Colo205 or SNU16 cells were combined with fresh PBMCs at a 1:1 ratio, mixed with […]® (volume of cell:gel=1:2), and implanted (100 μl/mouse) at the flank of Balb/c Rag2^−/−IL2Rγ^−/− (DKO) mice (now commercially available from Taconic as CIEA BRG mice). Treatment started after confirmation of tumor presence with a BIW schedule at 100 μg/mouse and continued for 3-4 weeks. Tumor growth was monitored by weekly measurement of tumor volume using a caliper or a digital device Peira TM900 Scanner (Peira Scientific Instruments, Turnhout, Belgium).
HuA33-BsAb cured MSI tumor LSI74T in a s.c. xenograft model and suppressed tumor growth in an i.p. model. LS174T cells were mixed with PBMCs at a 1:1 ratio and implanted subcutaneously in DKO mice. […] Mice from tumor+PBMC group developed tumor ulceration and had to be euthanized.

[7] = SEC-HPLC stability test (37° C. incubation, freeze-thaw); type: physicochemical
Experimental: SEC-HPLC analysis. Size and purity of huA33-BsAb was analyzed using HPLC system (Shimadzu Scientific Instruments Inc., Columbia, Md.). Monomeric species were identified using a molecular weight standard (Bio-Rad Laboratories, Hercules, Calif.) and percent monomer was calculated based on the relative area under curve (AUC) of different non-buffer peaks.
The huA33 antibody was reformatted into bispecific format by fusing scFv of humanized OKT3 to the C-terminus of light chain via a flexible GS linker (FIG. 1(A)). The DNA construct was used to establish a CHO-S stable cell line and huA33-BsAb was purified from the supernatant. Protein yield using protein A chromatography was 50 mg/L to 100 mg/L without extensive optimization. Similar yields were observed using EXPI293™ transient expression system (data not shown). One-step protein A purification routinely produced protein with purity above 90%, as measured by SEC-HPLC.

## huA33-BsAb: huA33 IgG with humanized OKT3 scFv fused to light chain C-terminus, N297A and K322A; SEQ ID NO: 19 and 21
[1]
  CD4(+) and CD8(+) T cells that upregulated CD25 expression while undergoing cell division: around 25%
[2]
  tumor growth and survival: suppressed tumor growth and significantly prolonged mice survival
[3]; CD45RO+ and CD45RO− fractions, 48 hours
  CD25 expression on T cells from the TDCC assay: CD25 expression was upregulated
[3]; Colo205, E:T 5:1, 48 hours, LDH assay
  cytotoxicity by sorted T cell subsets: both CD4(+) and CD8(+) memory T cell subsets were capable of inducing cytotoxicity
[4]; PBMCs + Colo205, 24 and 96 hours
  PD-1 upregulation on T cells: PD-1 upregulation was observed after 24 hours and persisted until 96 hours
[4]; PBMCs + Colo205, 96 hours
  T cell division by CFSE dye dilution: observed in both CD4(+) and CD8(+) T cells after 96 hours
[4]; PBMCs + Colo205, E:T 5, 1 μg/ml, 24 hours
  T cell activation (upregulation of CD25 and CD69 markers): caused activation of both CD4(+) and CD8(+) T cells
[4]; SKMEL5 target cells, 96 hours
  T cell activation with GPA33(−) target cells: did not activate T cells
[5]; i.v., 7 doses over 3 weeks, weekly T cells
  tumor growth in the abdomen: significantly suppressed metastatic growth of LS174T tumor
[5]; without further treatment
  time all mice remained alive: at least 60 days
[6]
  time mice remained tumor free: at least 120 days
  tumor response: effectively cured the mice
[7]; 37° C. for 4 weeks, SEC-HPLC
  percentage of monomers after incubation: only a minimal decrease in the percentage of monomers
[7]; four cycles of freeze-thaw
  SEC-HPLC profile after freeze-thaw: did not cause noticeable changes in SEC-HPLC profile
